Test results as given in patent US20250367185A1, “TRANSLESION SYNTHESIS POLYMERASE INHIBITORS AND USES THEREOF” (THE UNIVERSITY OF VERMONT AND STATE AGRICULTURAL COLLEGE, priority 2022, published 2025).

Columns and labels:
Format in all cases: cell-based
[1] = tested on: DDR, TLS, and DNA repair genes in A549-ACE2+ cells
[2] = tested on: SARS-COV-2; assay: SARS-COV-2 proliferation in cell lines, relative mRNA content
[3] = tested on: SARS-CoV-2 infected A549-ACE2+ cells
[4] = tested on: Dengue virus; assay: Dengue virus viral load in infected A549-ACE2+ cells; conditions: 10 μM, compared to non-treated cells, data at 24 hours, 48 hours and 5 days post-infection
Method: FIG. 2 is a graph showing the relative reduction of mRNA in untreated A549-ACE2+ cells (“Not Treated”) and in cells post-treatment with Compound 1 (“JH Treated”) at 24 and 48 hours post-infection with Dengue virus.
FIG. 3 is a graph showing the relative reduction of mRNA in untreated A549-ACE2+ cells and cells post treatment with Compound 1 (“JH Treated”) or untreated (“Not Treated”) 5 days post-infection with Dengue virus.
Compound 1 (10 μM) was administered to A549-ACE2+ cells infected with Dengue virus and the resulting viral loads were measured (FIGS. 2 and 3). Compared to non-treated cells, those treated with Compound 1 suppressed Dengue virus by 77-fold. Data is shown 24 hours, 48 hours, and 5 days post-infection (PI).

[5] = tested on: A549-ACE2+ cells infected with SARS-COV-2; assay: Microsatellite instability (MSI) in SARS-COV-2 infected cells
[6] = tested on: p62 and LC3 in SARS-COV-2 infected cells
[7] = tested on: gH2AX in SARS-CoV-2 infected A549-ACE2+ cells; assay: gH2AX expression in SARS-CoV-2 infected cells; conditions: SARS-CoV-2 infected A549-ACE2+ cells at 48 hours
Method: Next, whether other genome instability markers were also repressed by the Compound 1 treatment in SARS-COV-2 infected cells was examined. Compound 1 treatment of the A549-ACE2+ cells suppressed transcript expression of all the DDR, TLS, and DNA repair genes. Likewise, the enhanced expression of gH2AX in SARS-CoV-2 infected A549-ACE2+ cells at 48 hours was suppressed by up to 40-fold post-Compound 1 treatment.

CC(C)CC(=O)c1c(Nc2ccc(C(=O)O)cc2Cl)[nH]c2c(Cl)ccc([N+](=O)[O-])c2c1=O [Compound 1, 3-chloro-4-((8-chloro-3-(3-methylbutanoyl)-5-nitro-4-oxo-1,4-dihydroquinolin-2-yl)amino)benzoic acid]
transcript expression of all the DDR, TLS, and DNA repair genes [1]: suppressed | proliferation of SARS-COV-2, relative mRNA content in cells ([2]; A549-ACE2+ cells): directly suppress | proliferation of SARS-COV-2, relative mRNA content in cells ([2]; Calu-3 cells): directly suppress | proliferation of SARS-COV-2, relative mRNA content in cells ([2]; Vero cells): directly suppress | rescue of telomere instability [3]: did not rescue | suppression of Dengue virus (viral load) [4]: 77 fold | SARS-COV-2-dependent MSI [5]: suppress | expression of LC3 [6]: significantly increases | expression of p62 [6]: significantly increases | suppression of enhanced gH2AX expression [7]: up to 40 fold
